Where two headings read alike, the source gives them in different places.
Key:
[1] = Biodistribution in PC-3 tumor-bearing NSG mice (Example 2); type: in vivo; settings: male, NSG (NOD.Cg-Prkdc^scid Il2rg^tm1Wjl/SzJ), mouse, iv, total radioactivity; for tissue uptake at 2 h / tissue to tissue ratio at 2 h: 120 MIN p.i.
Method: (§1) […]. The mice were sacrificed by CO2 inhalation at 1 h, and 2 h p.i. Blood was collected by cardiac puncture. Organs/tissues were harvested, rinsed with PBS, blotted dry, and weighed. The activity in tissues was assayed by gamma counter and expressed as the percentage injected dose per gram of tissue (% ID/g).

[2] = tested on: PC-3 xenograft bearing mice; experiment: as above; type: in vivo
Method: as §1

[3] = tested on: PC-3 xenograft bearing mice; settings: PET/CT, PC-3 tumor-bearing mice
Method: Animal experiments were approved by the Animal Ethics Committee of the University of British Columbia.
Mice were sedated and scanned (Siemens Inveon microPET/CT) with body temperature maintained by heating pad. […] PET data were acquired in list mode, reconstructed using 3-dimensional ordered-subsets expectation maximization (2 iterations) followed by a fast maximum a priori algorithm (18 iterations) with CT-based attenuation correction. Images were analyzed using the Inveon Research Workplace software (Siemens Healthineers).

[4] = measured at 5 min and 15 min p.i., mice, radio-HPLC
Source text: ^68Ga-ProBOMB2 (5.9±0.3 MBq) was intravenously injected into four male NSG mice. After a 5-min and 15-min uptake period, two mice were sedated/euthanized at each timepoint, and blood was collected. The plasma was extracted from whole blood with acetonitrile, vortexed, and the supernatant separated.

CC(C)C[C@@H](CN1CCC[C@H]1C(N)=O)NC(=O)[C@H](Cc1c[nH]cn1)NC(=O)CNC(=O)[C@@H](NC(=O)[C@H](C)NC(=O)[C@H](Cc1c[nH]c2ccccc12)NC(=O)[C@H](CCC(N)=O)NC(=O)[C@@H](Cc1ccccc1)NC(=O)CN1CCC(NC(=O)CN2CCN(CC(=O)O)CCN(CC(=O)O)CCN(CC(=O)O)CC2)CC1)C(C)C [^68Ga-ProBOMB2, metal not drawn]
tissue uptake at 1 h ([1]; PC-3 tumor, 60 MIN BLOCKED, co-injection of 100 μg of [D-Phe^6,Leu-NHEt^13,des-Met^14]Bombesin(6-14), read-out: Biodistribution PC3 TUMOR, Mean): 3.77 %ID/g | tissue uptake at 1 h ([1]; PC-3 tumor, 60 MIN p.i., read-out: Biodistribution PC3 TUMOR, Mean): 10.8 %ID/g | tissue uptake at 2 h ([1]; PC-3 tumor, read-out: Biodistribution PC3 TUMOR, Mean): 8.79 %ID/g | tissue uptake at 1 h ([1]; adrenal glands, 60 MIN BLOCKED, co-injection of 100 μg of [D-Phe^6,Leu-NHEt^13,des-Met^14]Bombesin(6-14), read-out: Biodistribution ADRENAL GLANDS, Mean): 0.32 %ID/g | tissue uptake at 1 h ([1]; adrenal glands, 60 MIN p.i., read-out: Biodistribution ADRENAL GLANDS, Mean): 0.76 %ID/g | tissue uptake at 2 h ([1]; adrenal glands, read-out: Biodistribution ADRENAL GLANDS, Mean): 0.47 %ID/g | tissue uptake at 1 h ([1]; bone, 60 MIN BLOCKED, co-injection of 100 μg of [D-Phe^6,Leu-NHEt^13,des-Met^14]Bombesin(6-14), read-out: Biodistribution BONE, Mean): 0.13 %ID/g | tissue uptake at 1 h ([1]; bone, 60 MIN p.i., read-out: Biodistribution BONE, Mean): 0.15 %ID/g | tissue uptake at 2 h ([1]; bone, read-out: Biodistribution BONE, Mean): 0.06 %ID/g | tissue uptake at 1 h ([1]; brain, 60 MIN BLOCKED, co-injection of 100 μg of [D-Phe^6,Leu-NHEt^13,des-Met^14]Bombesin(6-14), read-out: Biodistribution BRAIN, Mean): 0.02 %ID/g | tissue uptake at 1 h ([1]; brain, 60 MIN p.i., read-out: Biodistribution BRAIN, Mean): 0.02 %ID/g | tissue uptake at 2 h ([1]; brain, read-out: Biodistribution BRAIN, Mean): 0.01 %ID/g | tissue uptake at 1 h ([1]; fat, 60 MIN BLOCKED, co-injection of 100 μg of [D-Phe^6,Leu-NHEt^13,des-Met^14]Bombesin(6-14), read-out: Biodistribution FAT, Mean): 0.08 %ID/g | tissue uptake at 1 h ([1]; fat, 60 MIN p.i., read-out: Biodistribution FAT, Mean): 0.06 %ID/g | tissue uptake at 2 h ([1]; fat, read-out: Biodistribution FAT, Mean): 0.02 %ID/g | tissue uptake at 1 h ([1]; heart, 60 MIN BLOCKED, co-injection of 100 μg of [D-Phe^6,Leu-NHEt^13,des-Met^14]Bombesin(6-14), read-out: Biodistribution HEART, Mean): 0.16 %ID/g | tissue uptake at 1 h ([1]; heart, 60 MIN p.i., read-out: Biodistribution HEART, Mean): 0.18 %ID/g | tissue uptake at 2 h ([1]; heart, read-out: Biodistribution HEART, Mean): 0.05 %ID/g | tissue uptake at 1 h ([1]; intestine, 60 MIN BLOCKED, co-injection of 100 μg of [D-Phe^6,Leu-NHEt^13,des-Met^14]Bombesin(6-14), read-out: Biodistribution INTESTINE, Mean): 0.34 %ID/g | tissue uptake at 1 h ([1]; intestine, 60 MIN p.i., read-out: Biodistribution INTESTINE, Mean): 0.46 %ID/g | tissue uptake at 2 h ([1]; intestine, read-out: Biodistribution INTESTINE, Mean): 0.19 %ID/g | tissue uptake at 1 h ([1]; kidney, 60 MIN BLOCKED, co-injection of 100 μg of [D-Phe^6,Leu-NHEt^13,des-Met^14]Bombesin(6-14), read-out: Biodistribution KIDNEY, Mean): 2.22 %ID/g | tissue uptake at 1 h ([1]; kidney, 60 MIN p.i., read-out: Biodistribution KIDNEY, Mean): 1.81 %ID/g | tissue uptake at 2 h ([1]; kidney, read-out: Biodistribution KIDNEY, Mean): 1.27 %ID/g | tissue uptake at 1 h ([1]; liver, 60 MIN BLOCKED, co-injection of 100 μg of [D-Phe^6,Leu-NHEt^13,des-Met^14]Bombesin(6-14), read-out: Biodistribution LIVER, Mean): 0.57 %ID/g | tissue uptake at 1 h ([1]; liver, 60 MIN p.i., read-out: Biodistribution LIVER, Mean): 0.43 %ID/g | tissue uptake at 2 h ([1]; liver, read-out: Biodistribution LIVER, Mean): 0.29 %ID/g | tissue uptake at 1 h ([1]; lungs, 60 MIN BLOCKED, co-injection of 100 μg of [D-Phe^6,Leu-NHEt^13,des-Met^14]Bombesin(6-14), read-out: Biodistribution LUNGS, Mean): 0.41 %ID/g | tissue uptake at 1 h ([1]; lungs, 60 MIN p.i., read-out: Biodistribution LUNGS, Mean): 0.39 %ID/g | tissue uptake at 2 h ([1]; lungs, read-out: Biodistribution LUNGS, Mean): 0.13 %ID/g | tissue uptake at 1 h ([1]; muscle, 60 MIN BLOCKED, co-injection of 100 μg of [D-Phe^6,Leu-NHEt^13,des-Met^14]Bombesin(6-14), read-out: Biodistribution MUSCLE, Mean): 0.09 %ID/g | tissue uptake at 1 h ([1]; muscle, 60 MIN p.i., read-out: Biodistribution MUSCLE, Mean): 0.15 %ID/g | tissue uptake at 2 h ([1]; muscle, read-out: Biodistribution MUSCLE, Mean): 0.03 %ID/g | tissue uptake at 1 h ([1]; pancreas, Biodistribution PANCREAS, Mean, 60 MIN BLOCKED, co-injection of 100 μg of [D-Phe^6,Leu-NHEt^13,des-Met^14]Bombesin(6-14), read-out: Biodistribution […], Mean): 0.62 %ID/g | tissue uptake at 1 h ([1]; pancreas, Biodistribution PANCREAS, Mean, 60 MIN p.i., read-out: Biodistribution […], Mean): 1.2 %ID/g | tissue uptake at 2 h ([1]; pancreas, Biodistribution PANCREAS, Mean, read-out: Biodistribution […], Mean): 0.3 %ID/g | tissue uptake at 1 h ([1]; seminal, 60 MIN BLOCKED, co-injection of 100 μg of [D-Phe^6,Leu-NHEt^13,des-Met^14]Bombesin(6-14), read-out: Biodistribution SEMINAL, Mean): 1.95 %ID/g | tissue uptake at 1 h ([1]; seminal, 60 MIN p.i., read-out: Biodistribution SEMINAL, Mean): 2.44 %ID/g | tissue uptake at 2 h ([1]; seminal, read-out: Biodistribution SEMINAL, Mean): 1.63 %ID/g | tissue uptake at 1 h ([1]; spleen, 60 MIN BLOCKED, co-injection of 100 μg of [D-Phe^6,Leu-NHEt^13,des-Met^14]Bombesin(6-14), read-out: Biodistribution SPLEEN, Mean): 0.33 %ID/g | tissue uptake at 1 h ([1]; spleen, 60 MIN p.i., read-out: Biodistribution SPLEEN, Mean): 0.27 %ID/g | tissue uptake at 2 h ([1]; spleen, read-out: Biodistribution SPLEEN, Mean): 0.11 %ID/g | tissue uptake at 1 h ([1]; stomach, 60 MIN BLOCKED, co-injection of 100 μg of [D-Phe^6,Leu-NHEt^13,des-Met^14]Bombesin(6-14), read-out: Biodistribution STOMACH, Mean): 0.07 %ID/g | tissue uptake at 1 h ([1]; stomach, 60 MIN p.i., read-out: Biodistribution STOMACH, Mean): 0.19 %ID/g | tissue uptake at 2 h ([1]; stomach, read-out: Biodistribution STOMACH, Mean): 0.06 %ID/g | tissue uptake at 1 h ([1]; testes, 60 MIN BLOCKED, co-injection of 100 μg of [D-Phe^6,Leu-NHEt^13,des-Met^14]Bombesin(6-14), read-out: Biodistribution TESTES, Mean): 0.21 %ID/g | tissue uptake at 1 h ([1]; testes, 60 MIN p.i., read-out: Biodistribution TESTES, Mean): 0.16 %ID/g | tissue uptake at 2 h ([1]; testes, read-out: Biodistribution TESTES, Mean): 0.07 %ID/g | tissue to tissue ratio at 1 h ([1]; tumor/blood, 60 MIN p.i., read-out: TUMOR-TO-BLOOD ratio, Mean): 22.2 | tissue to tissue ratio at 2 h ([1]; tumor/blood, read-out: TUMOR-TO-BLOOD ratio, Mean): 75.3 | tissue to tissue ratio at 1 h ([1]; tumor/bone, 60 MIN BLOCKED, co-injection of 100 μg of [D-Phe^6,Leu-NHEt^13,des-Met^14]Bombesin(6-14), read-out: TUMOR-TO-BONE ratio, Mean): 39.8 | tissue to tissue ratio at 1 h ([1]; tumor/bone, 60 MIN p.i., read-out: TUMOR-TO-BONE ratio, Mean): 89.9 | tissue to tissue ratio at 2 h ([1]; tumor/bone, read-out: TUMOR-TO-BONE ratio, Mean): 173 | tissue to tissue ratio at 1 h ([1]; tumor/kidney, 60 MIN BLOCKED, co-injection of 100 μg of [D-Phe^6,Leu-NHEt^13,des-Met^14]Bombesin(6-14), read-out: TUMOR-TO-KIDNEY ratio, Mean): 1.77 | tissue to tissue ratio at 1 h ([1]; tumor/kidney, 60 MIN p.i., read-out: TUMOR-TO-KIDNEY ratio, Mean): 6.03 | tissue to tissue ratio at 2 h ([1]; tumor/kidney, read-out: TUMOR-TO-KIDNEY ratio, Mean): 6.96 | tissue to tissue ratio at 1 h ([1]; tumor/liver, 60 MIN BLOCKED, co-injection of 100 μg of [D-Phe^6,Leu-NHEt^13,des-Met^14]Bombesin(6-14), read-out: TUMOR-TO-LIVER ratio, Mean): 7.33 | tissue to tissue ratio at 1 h ([1]; tumor/liver, 60 MIN p.i., read-out: TUMOR-TO-LIVER ratio, Mean): 26.2 | tissue to tissue ratio at 2 h ([1]; tumor/liver, read-out: TUMOR-TO-LIVER ratio, Mean): 35 | tissue to tissue ratio at 1 h ([1]; tumor/muscle, 60 MIN BLOCKED, co-injection of 100 μg of [D-Phe^6,Leu-NHEt^13,des-Met^14]Bombesin(6-14), read-out: TUMOR-TO-MUSCLE ratio, Mean): 44 | tissue to tissue ratio at 1 h ([1]; tumor/muscle, 60 MIN p.i., read-out: TUMOR-TO-MUSCLE ratio, Mean): 102 | tissue to tissue ratio at 2 h ([1]; tumor/muscle, read-out: TUMOR-TO-MUSCLE ratio, Mean): 411 | tissue to tissue ratio at 1 h ([1]; tumor/pancreas, TUMOR-TO-PANCREAS ratio, Mean, 60 MIN BLOCKED, co-injection of 100 μg of [D-Phe^6,Leu-NHEt^13,des-Met^14]Bombesin(6-14), read-out: TUMOR-TO-[…] ratio, Mean): 6.17 | tissue to tissue ratio at 1 h ([1]; tumor/pancreas, TUMOR-TO-PANCREAS ratio, Mean, 60 MIN p.i., read-out: TUMOR-TO-[…] ratio, Mean): 9.32 | tissue to tissue ratio at 2 h ([1]; tumor/pancreas, TUMOR-TO-PANCREAS ratio, Mean, read-out: TUMOR-TO-[…] ratio, Mean): 31.1 | tissue uptake at 1 h ([1]; whole blood, 60 MIN BLOCKED, co-injection of 100 μg of [D-Phe^6,Leu-NHEt^13,des-Met^14]Bombesin(6-14), read-out: Biodistribution BLOOD, Mean): 0.53 %ID/g | tissue uptake at 1 h ([1]; whole blood, 60 MIN p.i., read-out: Biodistribution BLOOD, Mean): 0.49 %ID/g | tissue uptake at 2 h ([1]; whole blood, read-out: Biodistribution BLOOD, Mean): 0.13 %ID/g | TUMOR-TO-BLOOD ratio, Mean ([2]; 60 MIN BLOCKED, co-injection of 100 μg of [D-Phe^6,Leu-NHEt^13,des-Met^14]Bombesin(6-14)): 7.23 | Decrease of average uptake in tumors by co-injection of [D-Phe^6, Leu-NHEt^13, des-Met^14]Bombesin(6-14) ([2]; PC-3 tumors, 60 min p.i., 100 μg blocker): 65% | Clearance pathway [3]: primarily cleared through the renal pathway | Intact in plasma [4]: 89%

— US20210402016A1, “RADIOLABELED BOMBESIN-DERIVED COMPOUNDS FOR IN VIVO IMAGING OF GASTRIN-RELEASING PEPTIDE RECEPTOR (GRPR) AND TREATMENT OF GRPR-RELATED DISORDERS” (Provincial Health Services Authority, priority 2018, published 2021)
